Experimental findings from patent publication US20220251141A1, “IMMUNOMODULATORS” (Bristol-Myers Squibb Company, priority 2019, published 2022) are described below.

Each structure is given as a SMILES string. pIC50: −log10 of the molar value. Where a name gives a salt, the structure may show the parent alone. Numbered stars: 1 amine (or outer) side, 2 acyl side, 3 side chain; on linkers, the order of the positions; unused ones are H or OH. Bridge positions count the residues as written; N and C are the ends. Square brackets hold non-standard residues; d marks the D form. Side chains are listed from the residue outwards. Peptide text beside a SMILES is read from it. * marks the point of attachment. Trp(1-CH2COOH) = N[C@@H](Cc1cn(CC(=O)O)c2ccccc12)C(=O)O; Trp(1-Me) = Cn1cc(C[C@H](N)C(=O)O)c2ccccc21; NH(1R-phenylethyl) = C[C@@H](N*)c1ccccc1; X15 = CCNC(=S)NCC[C@H](N[*:1])C(=O)[*:2]; X14 = CCNC(=S)NC[C@H](N[*:1])C(=O)[*:2]; Phe(4-F) = N[C@@H](Cc1ccc(F)cc1)C(=O)O; NHCH2CHPh2 = c1ccc(C(CN*)c2ccccc2)cc1; Hyp = O=C(O)[C@@H]1C[C@@H](O)CN1; NMeNle = CCCC[C@H](NC)C(=O)O; Pen = CC(C)(S)[C@H](N)C(=O)O; Pip = O=C(O)[C@@H]1CCCCN1; NMeA = CN[C@@H](C)C(=O)O; X7 = COc1ccc(CN*)c(OC)c1; Dab = NCC[C@H](N)C(=O)O; Dap = NC[C@H](N)C(=O)O; CO = O=C([*:1])[*:2]; Piv = CC(C)(C)C(=O)*; Tfa = O=C(C(F)(F)F)*

The assay deals with T1, PD-1/PD-L1 (Homo sapiens, UniProt Q9NZQ7).
T1 construct: TVMV protease site linker (C); made in house; host or cells: HEK293T cells
As to the kind of experiment: PD-1/PD-L1 Homogenous Time-Resolved Fluorescence (HTRF) binding assay. To be noted: PD-L1-His 10 nM final, PD-1-Ig 20 nM final; inhibitors pre-incubated with PD-L1-His for 15 m. From the text:
The ability of the compounds of formula (I) to bind to PD-L1 was investigated using a PD-1/PD-L1 Homogenous Time-Resolved Fluorescence (HTRF) binding assay.
The interaction of PD-1 and PD-L1 can be assessed using soluble, purified preparations of the extracellular domains of the two proteins. The PD-1 and PD-L1 protein extracellular domains were expressed as fusion proteins with detection tags, for PD-1, the tag was the Fc portion of Immunoglobulin (PD-1-Ig) and for PD-L1 it was the 6 histidine motif (PD-L1-His). All binding studies were performed in an HTRF assay buffer consisting of dPBS supplemented with 0.1% […] bovine serum albumin and 0.05% (v/v) Tween-20. For the h/PD-L1-His binding assay, inhibitors were pre-incubated with PD-L1-His (10 nM final) for 15 m in 4 μl of assay buffer, followed by addition of PD-1-Ig (20 nM final) in 1 μl of assay buffer and further incubation for 15 m. HTRF detection was achieved using europium cryptate-labeled anti-Ig (1 nM final) and allophycocyanin (APC) labeled anti-His (20 nM final). Antibodies were diluted in HTRF detection buffer and 5 μl was dispensed on top of the binding reaction. The reaction mixture was allowed to equilibrate for 30 minutes and the resulting signal (665 nm/620 nm ratio) was obtained using an EnVision fluorometer. Additional binding assays were established between the human proteins PD-1-Ig/PD-L2-His (20 & 5 nM, respectively) and CD80-His/PD-L1-Ig (100 & 10 nM, respectively).
Recombinant Proteins: Human PD-1 (25-167) with a C-terminal human Fc domain of immunoglobulin G (Ig) epitope tag [hPD-1 (25-167)-3S-IG] and human PD-L1 (18-239) with a C-terminal His epitope tag [hPD-L1(18-239)-TVMV-His] were expressed in HEK293T cells and purified sequentially by Protein A affinity chromatography and size exclusion chromatography. Human PD-L2-His and CD80-His was obtained through commercial sources.
Table 3 lists the IC50 values for representative examples of this disclosure measured in the PD-1/PD-L1 Homogenous Time-Resolved Fluorescence (HTRF) binding assay.
A word on the pIC50: it is the IC50 on a negative log10 scale, so that one unit is a factor of ten. Read a high pIC50 as a small IC50. `CCCC[C@H]1C(=O)N(C)[C@@H](CCCC)C(=O)N[C@@H](CC(C)C)C(=O)N[C@H](C(=O)NCC(N)=O)CSCC(=O)N[C@@H](Cc2ccc(O)cc2)C(=O)N(C)[C@@H](C)C(=O)N[C@@H](CC(N)=O)C(=O)N2CCC[C@H]2C(=O)N[C@@H](CNC(=O)NCc2ccc(OC)cc2OC)C(=O)N[C@@H](CC(C)C)C(=O)N2C[C@H](O)C[C@H]2C(=O)N[C@@H](Cc2c[nH]c3ccccc23)C(=O)N[C@@H](CCNC(=O)NCc2ccc(OC)cc2OC)C(=O)N[C@@H](Cc2cn(CC(=O)O)c3ccccc23)C(=O)N1C` [Example 1044] ({CH2CO}-Y[NMeA]NP[Dap]([CO-X7])L[Hyp]W[Dab]([CO-X7])[Trp(1-CH2COOH)][NMeNle][NMeNle]LCG-NH2; thioether N-14) gave a pIC50 of 8.59. The compound `CCCC[C@H]1C(=O)N(C)[C@@H](CCCC)C(=O)N[C@@H](CC(C)C)C(=O)N[C@H](C(N)=O)CSCC(=O)N[C@@H](Cc2ccc(F)cc2)C(=O)N2CCCC[C@H]2C(=O)N[C@@H](CC(N)=O)C(=O)N2CCC[C@H]2C(=O)N[C@@H](CNC(=O)C(C)(C)C)C(=O)N[C@@H](CC(C)C)C(=O)N2C[C@H](O)C[C@H]2C(=O)N[C@@H](Cc2c[nH]c3ccccc23)C(=O)N[C@@H](CCN)C(=O)N[C@@H](Cc2cn(C)c3ccccc23)C(=O)N1C` [Example 20260] ({CH2CO}-[Phe(4-F)][Pip]NP[Dap](Piv)L[Hyp]W[Dab][Trp(1-Me)][NMeNle][NMeNle]LC-NH2; thioether N-14) had a pIC50 of 7.54. Against the preceding compound, the pIC50 is 1.05 log units lower. Compound `CCCC[C@H]1C(=O)N(C)[C@@H](CCCC)C(=O)N[C@@H](CCC(=O)O)C(=O)N[C@H](C(N)=O)CSCC(=O)N[C@@H](Cc2ccc(F)cc2)C(=O)N2CCCC[C@H]2C(=O)N[C@@H](CC(=O)O)C(=O)N2CCC[C@H]2C(=O)N[C@@H](CNC(=O)C(C)(C)C)C(=O)N[C@@H](CC(C)C)C(=O)N2C[C@H](O)C[C@H]2C(=O)N[C@@H](Cc2c[nH]c3ccccc23)C(=O)N[C@@H](CCN)C(=O)N[C@@H](Cc2cn(CC(=O)O)c3ccccc23)C(=O)N1C` [Example 20170] ({CH2CO}-[Phe(4-F)][Pip]DP[Dap](Piv)L[Hyp]W[Dab][Trp(1-CH2COOH)][NMeNle][NMeNle]EC-NH2; thioether N-14) gave a pIC50 of 7.85. As for `CCCC[C@H]1C(=O)N(C)[C@@H](CCCC)C(=O)N[C@@H](CC(C)C)C(=O)N[C@H](C(=O)NCC(N)=O)CSCC(=O)N[C@@H](Cc2ccc(O)cc2)C(=O)N(C)[C@@H](C)C(=O)N[C@@H](CC(N)=O)C(=O)N2CCC[C@H]2C(=O)N[C@@H](CNC(=O)C(F)(F)F)C(=O)N[C@@H](CC(C)C)C(=O)N2C[C@H](O)C[C@H]2C(=O)N[C@@H](Cc2c[nH]c3ccccc23)C(=O)N[C@@H](CCN)C(=O)N[C@@H](Cc2cn(CC(=O)O)c3ccccc23)C(=O)N1C` [Example 1046] ({CH2CO}-Y[NMeA]NP[Dap](Tfa)L[Hyp]W[Dab][Trp(1-CH2COOH)][NMeNle][NMeNle]LCG-NH2; thioether N-14), the figure is 8.59; as for `CCCC[C@H]1C(=O)N(C)[C@@H](CCCC)C(=O)N[C@@H](CC(C)C)C(=O)N[C@H](C(=O)NCC(N)=O)CSCC(=O)N[C@@H](Cc2ccc(O)cc2)C(=O)N(C)[C@@H](C)C(=O)N[C@@H](CC(N)=O)C(=O)N2CCC[C@H]2C(=O)N[C@@H](CNC(=S)NCC)C(=O)N[C@@H](CC(C)C)C(=O)N2C[C@H](O)C[C@H]2C(=O)N[C@@H](Cc2c[nH]c3ccccc23)C(=O)N[C@@H](CCNC(=S)NCC)C(=O)N[C@@H](Cc2cn(CC(=O)O)c3ccccc23)C(=O)N1C` [Example 1026] ({CH2CO}-Y[NMeA]NP[X14]L[Hyp]W[X15][Trp(1-CH2COOH)][NMeNle][NMeNle]LCG-NH2; thioether N-14), 8.35; as for `CCCC[C@H]1C(=O)N(C)[C@@H](CCCC)C(=O)N[C@@H](CC(C)C)C(=O)N[C@H](C(=O)NCC(N)=O)CSCC(=O)N[C@@H](Cc2ccc(O)cc2)C(=O)N(C)[C@@H](C)C(=O)N[C@@H](CC(N)=O)C(=O)N2CCC[C@H]2C(=O)N[C@@H](CNC(=O)N[C@H](C)c2ccccc2)C(=O)N[C@@H](CC(C)C)C(=O)N2C[C@H](O)C[C@H]2C(=O)N[C@@H](Cc2c[nH]c3ccccc23)C(=O)N[C@@H](CCN)C(=O)N[C@@H](Cc2cn(CC(=O)O)c3ccccc23)C(=O)N1C` [Example 1041] ({CH2CO}-Y[NMeA]NP[Dap]([CO-NH(1R-phenylethyl)])L[Hyp]W[Dab][Trp(1-CH2COOH)][NMeNle][NMeNle]LCG-NH2; thioether N-14), 8.36. On to `CCCC[C@H]1C(=O)N(C)[C@@H](CCCC)C(=O)N[C@@H](CC(C)C)C(=O)N[C@H](C(N)=O)CSCC(=O)N[C@@H](Cc2ccc(F)cc2)C(=O)N2CCCC[C@H]2C(=O)N[C@@H](CC(N)=O)C(=O)N2CCC[C@H]2C(=O)N[C@@H](CNC(=O)C(C)(C)C)C(=O)N[C@@H](CC(C)C)C(=O)N2C[C@H](O)C[C@H]2C(=O)N[C@@H](Cc2c[nH]c3ccccc23)C(=O)N[C@@H](CCNC(=O)C(C)(C)C)C(=O)N[C@@H](Cc2cn(CC(=O)O)c3ccccc23)C(=O)N1C` [Example 20200] ({CH2CO}-[Phe(4-F)][Pip]NP[Dap](Piv)L[Hyp]W[Dab](Piv)[Trp(1-CH2COOH)][NMeNle][NMeNle]LC-NH2; thioether N-14), for which the pIC50 was 7.80.

For `CCCC[C@H]1C(=O)N(C)[C@@H](CCCC)C(=O)N[C@@H](CC(C)C)C(=O)N[C@H](C(=O)NCC(N)=O)CSCC(=O)N[C@@H](Cc2ccc(O)cc2)C(=O)N(C)[C@@H](C)C(=O)N[C@@H](CC(N)=O)C(=O)N2CCC[C@H]2C(=O)N[C@@H](CNC(=O)NCC(c2ccccc2)c2ccccc2)C(=O)N[C@@H](CC(C)C)C(=O)N2C[C@H](O)C[C@H]2C(=O)N[C@@H](Cc2c[nH]c3ccccc23)C(=O)N[C@@H](CCN)C(=O)N[C@@H](Cc2cn(CC(=O)O)c3ccccc23)C(=O)N1C` [Example 1040] ({CH2CO}-Y[NMeA]NP[Dap]([CO-NHCH2CHPh2])L[Hyp]W[Dab][Trp(1-CH2COOH)][NMeNle][NMeNle]LCG-NH2; thioether N-14), the pIC50 was 8.52.

The compound `CCCC[C@H]1C(=O)N(C)[C@@H](CCCC)C(=O)N[C@@H](CC(C)C)C(=O)N[C@H](C(=O)NCC(N)=O)CSCC(=O)N[C@@H](Cc2ccc(O)cc2)C(=O)N(C)[C@@H](C)C(=O)N[C@@H](CC(N)=O)C(=O)N2CCC[C@H]2C(=O)N[C@@H](CNC(=O)NCC(c2ccccc2)c2ccccc2)C(=O)N[C@@H](CC(C)C)C(=O)N2C[C@H](O)C[C@H]2C(=O)N[C@@H](Cc2c[nH]c3ccccc23)C(=O)N[C@@H](CCNC(=O)NCC(c2ccccc2)c2ccccc2)C(=O)N[C@@H](Cc2cn(CC(=O)O)c3ccccc23)C(=O)N1C` [Example 1042] ({CH2CO}-Y[NMeA]NP[Dap]([CO-NHCH2CHPh2])L[Hyp]W[Dab]([CO-NHCH2CHPh2])[Trp(1-CH2COOH)][NMeNle][NMeNle]LCG-NH2; thioether N-14) had a pIC50 of 7.94. The same measure for `CCCC[C@H]1C(=O)N(C)[C@@H](CCCC)C(=O)N[C@@H](CC(C)C)C(=O)N[C@H](C(N)=O)C(C)(C)SCC(=O)N[C@@H](Cc2ccc(F)cc2)C(=O)N2CCCC[C@H]2C(=O)N[C@@H](CC(N)=O)C(=O)N2CCC[C@H]2C(=O)N[C@@H](CNC(=O)C(C)(C)C)C(=O)N[C@@H](CC(C)C)C(=O)N2C[C@H](O)C[C@H]2C(=O)N[C@@H](Cc2c[nH]c3ccccc23)C(=O)N[C@@H](CCN)C(=O)N[C@@H](Cc2cn(CC(=O)O)c3ccccc23)C(=O)N1C` [Example 20010] ({CH2CO}-[Phe(4-F)][Pip]NP[Dap](Piv)L[Hyp]W[Dab][Trp(1-CH2COOH)][NMeNle][NMeNle]L[Pen]-NH2; thioether N-14): 8.31.
